According to US6699681B2, “Endothelin converting enzymes and the amyloid β peptide” (Mayo Foundation for Medical Education and Research, priority 2000, dated 2004):

Test system: Aβ concentration in plasma
Experiment: Treatment of guinea pigs with phosphoramidon, plasma Aβ by sandwich ELISA
Format: in vivo, guinea pig
Conditions: guinea pigs treated intravenously
Experimental: Animal experiments were conducted within the United States Department of Agriculture (USDA) and the National Institute of Health (NIH) guidelines for animal use and care. To prevent clotting and to facilitate the collection of plasma, each animal was given 100 USP units/kg heparin sodium salt (Sigma, St. Louis, Mo.) administered intraperitoneally (IP) prior to experimentation. Animals were anesthetized with a single IP injection of 0.9 mg/kg acepromazine maleate (Fermenta, Kansas City, Mo.) combined with 90 mg/kg Ketaset (Fort Dodge Laboratories, Fort Dodge, Iowa). […] During the entire operation, the animal's temperature was periodically monitored and anesthesia maintained by further intraperitoneal injections as necessary. […] Data was obtained from at least 2 animals, with the Aβ in each sample measured at least twice.
Human and guinea pig Aβ40 or Aβ42 was measured in plasma by sandwich ELISA as previously described (Suzuki et al., 1994, Science, 264:1336-1340) using the BAN-50/BA-27 or BAN-50/BC-05 antibody systems, respectively (Takeda; Japan). Hamster Aβ40- or Aβ42-derived from CHO cells was measured using the BNT-77/BA-27 or BNT-77/BC-05 antibody systems, respectively. Aβ concentration in samples was determined by comparison to synthetic Aβ40 or Aβ42 standards (Bachem, Switzerland). […]

With `CC(C)C[C@H](NP(=O)(O)O[C@@H]1O[C@@H](C)[C@H](O)[C@@H](O)[C@H]1O)C(=O)N[C@@H](Cc1c[nH]c2ccccc12)C(=O)O` [phosphoramidon] as the compound, how does the “Aβ concentration in the plasma” value read?
Its value is “dose-dependent, rapid increase”.
